Literature values in US20090233811A1, “Manufacture of Array Chips” (Randox Laboratories Ltd., priority 2005, published 2009).

Settings: data from Sigma-Aldrich Handbook of Stains, Dyes and Indicators

Solubility in water [mg/mL]	SMILES
50	O=S(=O)([O-])c1cc(S(=O)(=O)[O-])c2c(N=Nc3ccc(N=Nc4ccccc4)cc3)c(O)ccc2c1.[Na+].[Na+] [Brilliant Crocein MOO]
200	O=S(=O)([O-])c1cc(O)c2c(O)c(N=Nc3ccccc3)c(S(=O)(=O)[O-])cc2c1.[Na+].[Na+] [Chromotrope 2R]
40	O=S(=O)([O-])c1ccc2c(/N=N/c3ccccc3)c(O)ccc2c1.[Na+] [Crocein Orange]

Second part, the compound before the results:

SMILES	Solubility in water [mg/mL]
CC(=O)Nc1cc(S(=O)(=O)[O-])cc2cc(S(=O)(=O)[O-])c(/N=N/c3ccccc3)c(O)c12.[Na+].[Na+] [Acid Red 1]	60
O=C([O-])C1=NN(c2ccc(S(=O)(=O)[O-])cc2)C(=O)C1N=Nc1ccc(S(=O)(=O)[O-])cc1.[Na+].[Na+].[Na+] (stereo not drawn) [Tartrazine]	300
O=S(=O)([O-])c1cc(/N=N/c2ccc(O)cc2)ccc1C=Cc1ccc(/N=N/c2ccc(O)cc2)cc1S(=O)(=O)[O-].[Na+].[Na+] [Brilliant Yellow]	1
